Experimental data reported in patent US9113629B2, “4-amino-6-(4-substituted-phenyl)-picolinates and 6-amino-2-(4-substituted-phenyl)-pyrimidine-4-carboxylates and their use as herbicides” (DOW AGROSCIENCES LLC, priority 2013, dated 2015).

system: Key Grass and Sedge Weeds as well as Grass Crops; assay: Post-emergent Test II herbicidal activity (Table 6); type: in vivo; conditions: Triticum aestivum, post-emergence, 336 h, TRZSS (wheat), application rate 140 g ai/ha, read-out: Visual Growth Reduction (%) 14 Days After Application, TRZSS
In short: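 Compounds, dissolved in 97:3 acetone/DMSO and diluted into an aqueous carrier containing crop oil concentrate and Triton X-155, are applied over the top of young plants at 187 L/ha. Injury is scored visually at 14 d, 0% meaning no effect and 100% complete kill.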

| Compound | pest or weed control at 140 g/ha [%] |
| --- | --- |
| C=Cc1c(N)nc(-c2ccc(C(F)(F)F)c(F)c2)nc1C(=O)OC [Compound 137, Methyl 6-amino-2-(3-fluoro-4-(trifluoromethyl)phenyl)-5-vinylpyrimidine-4-carboxylate] | 0 to 29 |

same assay, conditions: post-emergence, 336 h, CYPES: yellow nutsedge (Cyperus esculentus), application rate 70 g ai/ha, read-out: Visual Growth Reduction (%) 14 Days After Application, CYPES

| Compound | pest or weed control at 70 g/ha [%] |
| --- | --- |
| C=Cc1c(N)nc(-c2ccc(C(F)(F)F)c(F)c2)nc1C(=O)OC [Compound 137, Methyl 6-amino-2-(3-fluoro-4-(trifluoromethyl)phenyl)-5-vinylpyrimidine-4-carboxylate] | 45 to 59 |

same assay, conditions: post-emergence, 336 h, CYPES: yellow nutsedge (Cyperus esculentus), application rate 140 g ai/ha, read-out: Visual Growth Reduction (%) 14 Days After Application, CYPES

| Compound | pest or weed control at 140 g/ha [%] |
| --- | --- |
| C=Cc1c(N)nc(-c2ccc(C(F)(F)F)c(F)c2)nc1C(=O)OC [Compound 137, Methyl 6-amino-2-(3-fluoro-4-(trifluoromethyl)phenyl)-5-vinylpyrimidine-4-carboxylate] | 45 to 59 |

same assay, conditions: post-emergence, 336 h, DIGSA: crabgrass (Digitaria sanguinalis), application rate 70 g ai/ha, read-out: Visual Growth Reduction (%) 14 Days After Application, DIGSA

| Compound | pest or weed control at 70 g/ha [%] |
| --- | --- |
| C=Cc1c(N)nc(-c2ccc(C(F)(F)F)c(F)c2)nc1C(=O)OC [Compound 137, Methyl 6-amino-2-(3-fluoro-4-(trifluoromethyl)phenyl)-5-vinylpyrimidine-4-carboxylate] | 0 to 29 |

same assay, conditions: post-emergence, 336 h, DIGSA: crabgrass (Digitaria sanguinalis), application rate 140 g ai/ha, read-out: Visual Growth Reduction (%) 14 Days After Application, DIGSA

| Compound | pest or weed control at 140 g/ha [%] |
| --- | --- |
| C=Cc1c(N)nc(-c2ccc(C(F)(F)F)c(F)c2)nc1C(=O)OC [Compound 137, Methyl 6-amino-2-(3-fluoro-4-(trifluoromethyl)phenyl)-5-vinylpyrimidine-4-carboxylate] | 0 to 29 |

same assay, conditions: post-emergence, 336 h, ECHCG: barnyardgrass (Echinochloa crus-galli), application rate 70 g ai/ha, read-out: Visual Growth Reduction (%) 14 Days After Application, ECHCG

| Compound | pest or weed control at 70 g/ha [%] |
| --- | --- |
| C=Cc1c(N)nc(-c2ccc(C(F)(F)F)c(F)c2)nc1C(=O)OC [Compound 137, Methyl 6-amino-2-(3-fluoro-4-(trifluoromethyl)phenyl)-5-vinylpyrimidine-4-carboxylate] | 0 to 29 |

same assay, conditions: post-emergence, 336 h, ECHCG: barnyardgrass (Echinochloa crus-galli), application rate 140 g ai/ha, read-out: Visual Growth Reduction (%) 14 Days After Application, ECHCG

| Compound | pest or weed control at 140 g/ha [%] |
| --- | --- |
| C=Cc1c(N)nc(-c2ccc(C(F)(F)F)c(F)c2)nc1C(=O)OC [Compound 137, Methyl 6-amino-2-(3-fluoro-4-(trifluoromethyl)phenyl)-5-vinylpyrimidine-4-carboxylate] | 0 to 29 |

same assay, conditions: post-emergence, 336 h, ORYSA: rice (Oryza sativa), application rate 70 g ai/ha, read-out: Visual Growth Reduction (%) 14 Days After Application, ORYSA

| Compound | pest or weed control at 70 g/ha [%] |
| --- | --- |
| C=Cc1c(N)nc(-c2ccc(C(F)(F)F)c(F)c2)nc1C(=O)OC [Compound 137, Methyl 6-amino-2-(3-fluoro-4-(trifluoromethyl)phenyl)-5-vinylpyrimidine-4-carboxylate] | 0 to 29 |

same assay, conditions: post-emergence, 336 h, ORYSA: rice (Oryza sativa), application rate 140 g ai/ha, read-out: Visual Growth Reduction (%) 14 Days After Application, ORYSA

| Compound | pest or weed control at 140 g/ha [%] |
| --- | --- |
| C=Cc1c(N)nc(-c2ccc(C(F)(F)F)c(F)c2)nc1C(=O)OC [Compound 137, Methyl 6-amino-2-(3-fluoro-4-(trifluoromethyl)phenyl)-5-vinylpyrimidine-4-carboxylate] | 0 to 29 |

same assay, conditions: post-emergence, 336 h, SETFA: giant foxtail (Setaria faberi), application rate 70 g ai/ha, read-out: Visual Growth Reduction (%) 14 Days After Application, SETFA

| Compound | pest or weed control at 70 g/ha [%] |
| --- | --- |
| C=Cc1c(N)nc(-c2ccc(C(F)(F)F)c(F)c2)nc1C(=O)OC [Compound 137, Methyl 6-amino-2-(3-fluoro-4-(trifluoromethyl)phenyl)-5-vinylpyrimidine-4-carboxylate] | 0 to 29 |

same assay, conditions: post-emergence, 336 h, SETFA: giant foxtail (Setaria faberi), application rate 140 g ai/ha, read-out: Visual Growth Reduction (%) 14 Days After Application, SETFA

| Compound | pest or weed control at 140 g/ha [%] |
| --- | --- |
| C=Cc1c(N)nc(-c2ccc(C(F)(F)F)c(F)c2)nc1C(=O)OC [Compound 137, Methyl 6-amino-2-(3-fluoro-4-(trifluoromethyl)phenyl)-5-vinylpyrimidine-4-carboxylate] | 0 to 29 |

same assay, conditions: post-emergence, 336 h, SORVU: grain sorghum (Sorghum vulgare), application rate 70 g ai/ha, read-out: Visual Growth Reduction (%) 14 Days After Application, SORVU

| Compound | pest or weed control at 70 g/ha [%] |
| --- | --- |
| C=Cc1c(N)nc(-c2ccc(C(F)(F)F)c(F)c2)nc1C(=O)OC [Compound 137, Methyl 6-amino-2-(3-fluoro-4-(trifluoromethyl)phenyl)-5-vinylpyrimidine-4-carboxylate] | 0 to 29 |

same assay, conditions: post-emergence, 336 h, SORVU: grain sorghum (Sorghum vulgare), application rate 140 g ai/ha, read-out: Visual Growth Reduction (%) 14 Days After Application, SORVU

| Compound | pest or weed control at 140 g/ha [%] |
| --- | --- |
| C=Cc1c(N)nc(-c2ccc(C(F)(F)F)c(F)c2)nc1C(=O)OC [Compound 137, Methyl 6-amino-2-(3-fluoro-4-(trifluoromethyl)phenyl)-5-vinylpyrimidine-4-carboxylate] | 0 to 29 |

same assay, conditions: post-emergence, 336 h, ZEAMX: maize, corn (Zea mays), application rate 70 g ai/ha, read-out: Visual Growth Reduction (%) 14 Days After Application, ZEAMX

| Compound | pest or weed control at 70 g/ha [%] |
| --- | --- |
| C=Cc1c(N)nc(-c2ccc(C(F)(F)F)c(F)c2)nc1C(=O)OC [Compound 137, Methyl 6-amino-2-(3-fluoro-4-(trifluoromethyl)phenyl)-5-vinylpyrimidine-4-carboxylate] | 0 to 29 |

same assay, conditions: post-emergence, 336 h, ZEAMX: maize, corn (Zea mays), application rate 140 g ai/ha, read-out: Visual Growth Reduction (%) 14 Days After Application, ZEAMX

| Compound | pest or weed control at 140 g/ha [%] |
| --- | --- |
| C=Cc1c(N)nc(-c2ccc(C(F)(F)F)c(F)c2)nc1C(=O)OC [Compound 137, Methyl 6-amino-2-(3-fluoro-4-(trifluoromethyl)phenyl)-5-vinylpyrimidine-4-carboxylate] | 0 to 29 |
